From publication PMC12348844, “Anti-Trypanosoma cruzi Potential of New Pyrazole-Imidazoline Derivatives” (Molecules, 2025)

Columns and labels:
[1] = test system: T. cruzi Dm28c-Luc in cardiac spheroids; test: Efficacy in T. cruzi-infected 3D cardiac microtissues; assay type: cell-based; details: Trypanosoma cruzi, 72 h, read-out: inhibition of parasite load in infected cardiac spheroids
Procedure: Three-dimensional (3D) heart muscle cell cultures were obtained as previously described. Briefly, heart muscle cells were isolated from 18-day-old Swiss Webster mouse fetuses. The ventricular tissue was fragmented and enzymatically dissociated using a trypsin and collagenase type II solution. The isolated cells were seeded at a density of 2.5 × 10^4 cells/well in 96-well U-bottom microplates previously coated with 1% agarose. The cells were cultured in Dulbecco’s modified Eagle Medium (DMEM) enriched with 10% FBS, 2.5 mM CaCl2, 1 mM L-glutamine, 2% chicken embryo extract, and a cocktail of antibiotics. The cultures were maintained at 37 °C in a 5% CO2 atmosphere. […]
The efficacy of the promising candidate was assessed using cardiac 3D microtissues. […] At the end of the experiment, luminescence was measured using a Glomax Multi-Detection plate reader (Promega Corporation, Madison, WI, USA) after adding luciferin solution, with results reported in arbitrary luminescence units (A.L.U). To enhance reliability and provide qualitative, orthogonal validation of these luminescence readings, we employed confocal fluorescence microscopy using 4′,6′-diamidino-2-phenylindole (DAPI) staining. […] Imaging was performed using a Zeiss LSM710 confocal fluorescence microscope (Carl Zeiss, Baden–Württemberg, Germany). […]

[2] = test system: T. cruzi cysteine protease; test: Cysteine protease activity in trypomastigote protein extract (Z-Phe-Arg-AMC); assay type: biochemical, Trypanosoma cruzi; details: 90 min, 37 °C, 33.3, 100 and 300 µM tested
Procedure: Total proteins from T. cruzi Dm28c-Luc were extracted using a lysis buffer [100 mM Tris-HCl pH 8.0, 150 mM NaCl, 10% glycerol, 0.5% Triton X-100]. The protein concentration was quantified using the Bradford assay, with bovine serum albumin (BSA) used to establish the standard curve. For the assessment of cysteine protease activity, 5 μg of the protein extract was incubated in an acetate buffer [10 mM sodium acetate, pH 5.0], supplemented with 1 mM dithiothreitol (DTT) in a final volume of 100 μL. The reaction used a fluorogenic peptide substrate, N-benzoyloxycarbonyl-L-phenylalanyl-L-arginine 7-amino-4-methylcoumarin (Z-FR-AMC), at a concentration of 60 μM. Incubation was conducted at 37 °C for 90 min, with relative fluorescence changes measured using a SpectraMax M2e spectrophotometer (Molecular Devices, Sunnyvale, CA, USA). Inhibition assays were performed using three concentrations (33.3, 100, and 300 µM) of the promising candidate and trans-epoxysuccinyl-L-leucylamido(4-guanidino)butane (E-64), each analyzed separately. A control was included using a low DMSO concentration (≤1%). Enzymatic activity was expressed in µmol/min/mg of protein, with residual activity presented as a percentage.

[3] = test system: T. cruzi Dm28c-Luc trypomastigotes; test: Anti-T. cruzi in vitro assay, trypomastigotes (luminescence); assay type: cell-based; details: Trypanosoma cruzi, 24 h, mean ± SD
Procedure: The genetically modified Trypanosoma cruzi, clone Dm28c (TcI), expressing luciferase (Dm28c-Luc), was kindly provided by Dr. Cristina Henriques from Oswaldo Cruz Institute—Fiocruz. The parasites were maintained using Vero cell cultures in RPMI 1640 medium enriched with 10% FBS. At 4 days post-infection (dpi), the trypomastigotes released into the culture supernatant were harvested, subjected to centrifugation at 800× g for 20 min at 4 °C, and quantified with a Neubauer chamber. The isolated trypomastigotes were subsequently used for phenotypic screening, drug efficacy assessments employing a 3D cardiac model, washout experiments to evaluate reversibility, drug combination studies, and enzymatic assays.
Drug susceptibility assays were performed on T. cruzi Dm28c-Luc, a genetically engineered parasite expressing luciferase. The drug screening used both trypomastigotes and intracellular amastigotes. Trypomastigotes (1 × 10^6 parasites/well) were added to white 96-well plates with clear bottoms. […] The luminescence was measured using a Glomax Multi-Detection plate reader (Promega Corporation, Madison, WI, USA).

Which results are given for `FC(F)(F)c1ccc(-n2cc(C3=NCCN3)cn2)cc1` [1k, 1-(4-trifluoromethylphenyl)-4-(4,5-dihydro-1H-imidazol-2-yl)-1H-pyrazole]?
inhibition at 28.8 µM ([1]; 28.8 µM): 90%; inhibition at 57.6 µM ([1]; 57.6 µM): 94%; inhibition of cysteine protease activity [2]: 3.76%; IC50 [3]: 72.2 ± 10.3 µM; IC90 [3]: > 100 µM
